Target: T1, NBD-ZPI (Homo sapiens, UniProt Q9UK55, C190A/C285S/K260C)
T1 construct: made in house; host or cells: Escherichia coli
T1 sequence (Q9UK55 22-444 C190A/K260C/C285S): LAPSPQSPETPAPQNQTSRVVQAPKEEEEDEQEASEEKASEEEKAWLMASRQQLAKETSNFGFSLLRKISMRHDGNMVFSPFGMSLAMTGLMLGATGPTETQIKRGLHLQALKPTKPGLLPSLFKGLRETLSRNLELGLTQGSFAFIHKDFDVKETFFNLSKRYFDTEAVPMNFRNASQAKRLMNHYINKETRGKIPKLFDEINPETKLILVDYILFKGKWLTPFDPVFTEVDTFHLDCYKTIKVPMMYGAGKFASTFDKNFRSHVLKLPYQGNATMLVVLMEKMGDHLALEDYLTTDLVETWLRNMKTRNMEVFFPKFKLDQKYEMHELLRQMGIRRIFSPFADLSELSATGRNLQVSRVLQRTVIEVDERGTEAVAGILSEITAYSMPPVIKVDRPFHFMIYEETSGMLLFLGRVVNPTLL
Experiment: Competitive binding titrations of NBD-ZPI–PZ complex with heparins (quenching of NBD fluorescence)
Conditions: competitive titration of NBD-ZPI–PZ complex (50 nM ZPI/62 nM PZ), 0.1 M NaCl buffer; read-out: ZPI–heparin KD,H
Protocol: Equilibrium binding of heparin to NBD-ZPI was measured by competitive binding titrations in which heparins of various lengths were titrated into NBD-ZPI (50 nM) complexed with a molar excess of PZ (62 nM) in a lower ionic strength buffer (0.1 M NaCl) and heparin binding followed by the quenching of NBD-ZPI–PZ complex fluorescence. Titrations were computer fit by the competitive binding equation, ΔFmax−ΔFobs/ΔFmax=Fobs−F∞/F0−F∞=[ZPI]0+[PZ]0+KD,PZ×(1+[H]0/KD,H)−([ZPI]0+[PZ]0+KD,PZ×(1+[H]0/KD,H))^2−4×[ZPI]0×[PZ]0/[ZPI]0+[PZ]0+KD,PZ−([ZPI]0+[PZ]0+KD,PZ)^2−4×[ZPI]0×[PZ]0
in which ΔFobs is the observed change in fluorescence of PZ complexed and uncomplexed NBD-ZPI before (Fo) and after heparin addition (Fobs), ΔFmax is the maximal fluorescence change upon reaching the end point fluorescence of NBD-ZPI after complete dissociation of PZ (F∞), [ZPI]o, [PZ]o, and [H]o are total concentrations of NBD-ZPI, PZ, and heparin, respectively, and KD,PZ and KD,H are dissociation constants for the NBD-ZPI–PZ and the NBD-ZPI–heparin interactions, respectively. […] In fitting data to the aforementioned equation, KD,PZ was fixed at the value determined by titration of NBD-ZPI with PZ in the absence of heparin, and KD,H was the fitted parameter.

Kd: 32.4 ± 1.9 µM
SMILES: CO[C@H]1O[C@H](COS(=O)(=O)O)[C@@H](O[C@@H]2O[C@@H](C(=O)O)[C@@H](O[C@H]3O[C@H](COS(=O)(=O)O)[C@@H](O[C@@H]4O[C@H](C(=O)O)[C@@H](O[C@H]5O[C@H](COS(=O)(=O)O)[C@@H](O)[C@H](O)[C@H]5NS(=O)(=O)O)[C@H](O)[C@H]4O)[C@H](OS(=O)(=O)O)[C@H]3NS(=O)(=O)O)[C@H](O)[C@H]2OS(=O)(=O)O)[C@H](O)[C@H]1NS(=O)(=O)O [H5, fondaparinux]

Source: paper PMC9190012, “Heparin activation of protein Z-dependent protease inhibitor (ZPI) allosterically blocks protein Z activation through an extended heparin-binding site” (The Journal of Biological Chemistry, 2022)
